Earlier results as cited in patent US20230285350A1, “FORMULATIONS FOR TETRACAINE AND LIDOCAINE” (LYOTIP, INC., priority 2020, published 2023).

## CCN(CC)CC(=O)Nc1c(C)cccc1C [lidocaine, Lidocaine]
Used as an injectable
  duration of effect: half an hour to three hours

## CCCCNc1ccc(C(=O)OCCN(C)C)cc1 [Tetracaine]
Used in the eyes
  Onset of effects: ≤ 30 s
  duration of effects: less than 15 minutes

## CNC[C@H](O)c1ccc(O)c(O)c1 [Epinephrine]
Used with tetracaine
  prolongation of numbing effect and motor block effect of the anesthetic: up to an hour
